Assay results reported in patent publication US6638972B2, “Chroman and benzofuran derivatives as 5-hydroxytryptamine-6 ligands” (Wyeth, priority 2001, dated 2003).
Where a name gives a salt, the structure may show the parent alone.

Key:
[1] = molecular target: T1, human cloned 5-HT6 receptors (Homo sapiens, UniProt P50406); assay: 5-HT6 binding affinity ([3H]-LSD displacement, membranes of Hela cells expressing human cloned 5-HT6 receptors); conditions: [3H]-LSD 3.0 nM, Hela cell membranes, 120 min at room temperature; read-out: 5-HT6 Binding Ki
T1 construct: expressed in transfected cells; host or cells: HeLa cells (membrane preparation)
Protocol: The affinity of test compounds for the serotonin 5-T6 receptor is evaluated in the following manner. Cultured Hela cells expressing human cloned 5-HT6 receptors are harvested and centrifuged at low speed (1,000×g) for 10.0 min to remove the culture media. The harvested cells are suspended in half volume of fresh physiological phosphate buffered saline solution and recentrifuged at the same speed. This operation is repeated. The collected cells are then homogenized in ten volumes of 50 mM Tris.HCl (pH 7.4) and 0.5 mM EDTA. The homogenate is centrifuged at 40,000×g for 30.0 min and the precipitate is collected. The obtained pellet is resuspended in 10 volumes of Tris.HCl buffer and recentrifuged at the same speed. The final pellet is suspended in a small volume of Tris.HCl buffer and the tissue protein content is determined in aliquots of 10-25 μl volumes. Bovine Serum Albumin is used as the standard in the protein determination according to the method described in Lowry et al., J. Biol. Chem., 193:265 (1951). The volume of the suspended cell membranes is adjusted to give a tissue protein concentration of 1.0 mg/ml of suspension. The prepared membrane suspension (10 times concentrated) is aliquoted in 1.0 ml volumes and stored at −70° C. until used in subsequent binding experiments.
Binding experiments are performed in a 96 well microtiter plate format, in a total volume of 200 μl. […] The test compounds are added in 20.0 μl volume.
The reaction is allowed to proceed in the dark for 120 min at room temperature, at which time, the bound ligand-receptor complex is filtered off on a 96 well unifilter with a Packard Filtermate® 196 Harvester. The bound complex caught on the filter disk is allowed to air dry and the radioactivity is measured in a Packard TopCount® equipped with six photomultiplier detectors, after the addition of 40.0 μl Microscint®-20 scintillant to each shallow well. The unifilter plate is heat-sealed and counted in a PackardTopCount® with a tritium efficiency of 31.0%.
Binding in the presence of varying concentrations of test compound is expressed as a percentage of specific binding in the absence of test compound. The results are plotted as log % bound versus log concentration of test compound. […] A linear regression line of data points is plotted, from which the IC50 value is determined and the Ki value is determined based upon the following equation: […]
where L is the concentration of the radioactive ligand used and KD is the dissociation constant of the ligand for the receptor, both expressed in nM.

T1 sequence (P50406 whole entry): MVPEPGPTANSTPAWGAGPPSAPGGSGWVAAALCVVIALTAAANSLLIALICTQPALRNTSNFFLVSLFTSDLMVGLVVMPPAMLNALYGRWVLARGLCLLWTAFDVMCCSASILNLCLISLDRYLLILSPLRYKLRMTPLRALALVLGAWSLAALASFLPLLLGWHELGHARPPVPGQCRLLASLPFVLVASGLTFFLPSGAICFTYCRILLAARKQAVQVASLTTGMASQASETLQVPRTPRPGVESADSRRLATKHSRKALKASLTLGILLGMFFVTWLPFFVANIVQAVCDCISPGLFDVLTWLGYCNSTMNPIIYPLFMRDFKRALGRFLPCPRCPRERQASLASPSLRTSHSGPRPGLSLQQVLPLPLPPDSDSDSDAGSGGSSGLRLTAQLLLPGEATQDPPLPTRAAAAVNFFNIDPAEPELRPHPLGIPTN

| SMILES | melting point [°C] | Ki [1] [nM] |
| --- | --- | --- |
| c1ccc(CCCNCC2CCc3ccc(OCc4ccccc4)cc3O2)cc1 (stereo not shown) (as salt: hydrochloride) [Example 10, (7-benzyloxy-chroman-2-ylmethyl)-(3-phenyl-propyl)-amine] | 138 to 139 |  |
| c1ccc(COCCCNCC2CCc3ccc(OCc4ccccc4)cc3O2)cc1 (stereo not shown) (as salt: hydrochloride) [Example 11, (7-benzyloxy-chroman-2-ylmethyl)-(3-benzyloxy-propyl)-amine] | 138 to 139 |  |
| CCCCNCC1CCc2ccc(OCc3ccccc3)cc2O1 (stereo not shown) (as salt: hydrochloride) [Example 12, (7-benzyloxy-chroman-2-ylmethyl)-butyl-amine] | 150 to 151 |  |
| OCCCNCC1CCc2ccc(OCC3CCCCC3)cc2O1 (stereo not shown) (as salt: hydrochloride) [Example 13, 3-[(7-cyclohexylmethoxy-chroman-2-ylmethyl)-amino]-propan-1-ol] | 159 to 160 |  |
| OCCCNCC1CCc2ccc(OCc3ccccc3Cl)cc2O1 (stereo not shown) (as salt: hydrochloride) [Example 14, 3-{[7-(2-chloro-benzyloxy)-chroman-2-ylmethyl]-amino}-propan-1-ol] | 114 to 115 |  |
| OCCCNCC1CCc2ccc(Oc3ccccc3)cc2O1 (stereo not shown) (as salt: hydrochloride) [Example 15, 3-[(7-phenoxy-chroman-2-ylmethyl)-amino]-propan-1-ol] | 178 to 179 |  |
| Cc1nc(COc2ccc3c(c2)OC(CNCCCO)CC3)cs1 (stereo not shown) (as salt: salt) [Example 23, 3-{[7-(2-methyl-thiazol-4-ylmethoxy)-chroman-2-ylmethyl]-amino}-propan-1-ol] | 94 to 102 |  |
| O=[N+]([O-])c1ccc(OCCCNCC2CCc3ccc(OCc4ccccc4)cc3O2)cc1 (stereo not shown) [Example 32, (7-benzyloxy-chroman-2-ylmethyl)-[3-(4-nitro-phenoxy)-propyl]-amine] | 118 to 120 | 157 |
| O=[N+]([O-])c1cccc(OCCCNCC2CCc3ccc(OCc4ccccc4)cc3O2)c1 (stereo not shown) [Example 33, (7-benzyloxy-chroman-2-ylmethyl)-[3-(3-nitro-phenoxy)-propyl]-amine] | 82 to 87 | 69 |
| Clc1cccc(OCCCNCC2CCc3ccc(OCc4ccccc4)cc3O2)c1 (stereo not shown) [Example 34, (7-benzyloxy-chroman-2-ylmethyl)-[3-(3-chloro-phenoxy)-propyl]-amine] | 110 to 116 | 192 |
| O=c1ccc2ccc(OCCCNCC3CCc4ccc(OCc5ccccc5)cc4O3)cc2o1 (stereo not shown) [Example 35, 7-{3-[(7-benzyloxy-chroman-2-ylmethyl)-amino]-propoxy}-chromen-2-one] | 63 to 68 | 29 |
| O=c1ccc2ccc(OCCCNCC3CCc4cc(Cl)c(OCc5ccccc5)cc4O3)cc2o1 (stereo not shown) [Example 36, 7-{3-[(7-benzyloxy-6-chloro-chroman-2-ylmethyl)-amino]-propoxy}-chromen-2-one] | 92 to 95 | 43 |
| OC[C@H](CSCc1ccccc1)NCC1CCc2ccc(OCc3ccccc3)cc2O1 (stereo partly drawn) [Example 37, (2R)-2-[(7-benzyloxy-chroman-2-ylmethyl)-amino]-3-benzylsulfanyl-propan-1-ol] | 59 to 65 | 303 |
| OCCNC[C@H]1CCc2ccc(OCc3ccccc3)cc2O1 [Example 44] | 196 to 197 | 10 |
| OCCCNC[C@H]1CCc2ccc(OCc3ccccc3)cc2O1 [Example 45, 3-{[(2R)-7-benzyloxy-chroman-2-ylmethyl]-amino}-propan-1-ol] | 119 | 9 |
| COCCCNC[C@H]1CCc2ccc(OCc3ccccc3)cc2O1 [Example 46, [(2R)-7-benzyloxy-chroman-2-ylmethyl]-(3-methoxy-propyl)-amine] | 128 to 129 | 25 |
| OCCCNCC1Cc2ccc(OCc3ccccc3)cc2O1 (stereo not shown) [Example 53, 3-[(6-benzyloxy-2,3-dihydro-benzofuran-2-ylmethyl)-amino]-propan-1-ol] | 125 to 127 | 339 |
| c1ccc(CNCc2cc3ccc(OCc4ccccc4)cc3o2)cc1 [Example 54, benzyl-(6-benzyloxy-benzofuran-2-ylmethyl)-amine] | 198 to 200 | 1350 |
| OCCCNCc1cc2ccc(OCc3ccccc3)cc2o1 [Example 55, 3-[(6-benzyloxy-benzofuran-2-ylmethyl)-amino]-propan-1-ol] | 145 to 147 | 1180 |
